The values below come from patent US11793779B2, “Hica for use in prophylaxis and/or treatment of a disease or condition involving degradation of cartilage and/or disruption of cartilage homeostasis and/or integrity” (Salarusta Oy, priority 2020, dated 2023).

Format in all cases: biochemical
For experiment [1], the target named is T1, Human recombinant pure MMP-8 (Homo sapiens, UniProt P22894).
T1 construct: purchased Proteaimmun 30100702
The experiment can be described thus: MMP-8 mediated DEL-1 fragmentation (SDS-PAGE, silver stain). As to conditions: for inhibition of MMP-8 mediated DEL-1 fragmentation: Study A, 4 μl of 10% isomer, overnight at 37° C., FIG. 3A. The procedure:
The degradation of DEL-1 by MMP-8 was determined similarly as described (DeCarlo 1994, Sorsa, Salo et al. 1997). Human recombinant pure MMP-8 (#30100702, Proteaimmun) was preincubated 1 hour at 37° C. with p-aminophenylmercuric acetate (APMA) and different HICA isomers (D-HICA, #CAS 20312-37-2, Santa Cruz Biotechnology; L-HICA, #219827 Sigma-Aldrich). After which DEL-1 was added as a substrate. That was let incubate overnight at +37° C. Analyzed on […] SDS-PAGE with Silver Stain Pierce®. α-hydroxy-isovaleric acid (HMB). Ilomastat (Ilo). As assay buffer 50 mM Tris-HCl-buffer (TNC): pH 7.5; 0.2 M NaCl; 1.0 mM CaCl2 (Tervahartiala, Ingman et al. 1995). Fragmentation of DEL-1 induced by MMP-8 treated with 1 mM APMA was regarded as 100%. (Sorsa, Salo et al. 1997).
Study A: • 1. 1.7 μl DEL-1 (0.2 μg/μl) • 2. 1 μl MMP-8 (0.1 μg/μl)+5 μl 2 mM APMA+4 μl TNC • 3. 1.7 μl DEL-1 (0.2 μg/μl)+1 μl MMP-8 (0.1 μg/μl)+5 μl 2 mM APMA+4 μl TNC • 4.,5. 1.7 μl DEL-1 (0.2 μg/μl)+1 μl MMP-8 (0.1 μg/μl)+5 μl 2 mM APMA+10% 4 μl D-HICA • 6.,7. 1.7 μl DEL-1 (0.2 μg/μl)+1 μl MMP-8 (0.1 μg/μl)+5 μl 2 mM APMA+10% 4 μl L-HICA • 8.,9. 1.7 μl DEL-1 (0.2 μg/μl)+1 μl MMP-8 (0.1 μg/μl)+5 μl 2 mM APMA+10% 4 μl D-HMB • 10.,11. 1.7 μl DEL-1 (0.2 μg/μl)+1 μl MMP-8 (0.1 μg/μl)+5 μl 2 mM APMA+10% 4 μl L-HMB • 12.,13. 1.7 μl DEL-1 (0.2 μg/μl)+1 μl MMP-8 (0.1 μg/μl)+5 μl 2 mM APMA+4 μl Ilo
Study B: • 1. 1.7 μl DEL-1 (0.2 μg/μl) • 2. 1 μl MMP-8 (0.1 μg/μl)+5 μl 2 mM APMA+4 μl TNC • 3.,4. 1.7 μl DEL-1 (0.2 μg/μl)+1 μl MMP-8 (0.1 μg/μl)+5 μl 2 mM APMA+4 μl TNC • 6.,7. 1.7 μl DEL-1 (0.2 μg/μl)+1 μl MMP-8 (0.1 μg/μl)+7 μl 1.4 mM APMA+2 μl 10% D-HICA • 8.,9.,10. 1.7 μl DEL-1 (0.2 μg/μl)+1 μl MMP-8 (0.1 μg/μl)+5 μl 2 mM APMA+4 μl 10% D-HICA • 11.,12.,13. 1.7 μl DEL-1 (0.2 μg/μl)+1 μl MMP-8 (0.1 μg/μl)+1 μl 10 mM APMA+8 μl 10% D-HICA • 14. 1.7 μl DEL-1 (0.2 μg/μl)+1 μl MMP-8 (0.1 μg/μl)+5 μl 2 mM APMA+4 μl Ilo

Experiment [2] concerns the target T2, human Matrix metalloproteinase 13 (MMP-13) (Homo sapiens, UniProt P45452).
T2 construct: purchased BioTeZ, Berlin-Buch, Berlin, Germany 30100802
Put plainly: MMP-13 mediated break down of aggrecan (SDS-PAGE, silver stain). Particulars: 10% racemic HICA, APMA-activated MMP-13, incubation 2 d, FIG. 1 line 11. The procedure:
(§1) As positive inhibitor controls Ilomastat (Ilo, CC1010, Millipore) and chlorhexidine (CHX, Corsodyl®, [2 mg/ml] (GlaxoSmithKline, Brøndby, Denmark) were used and 50 mM Tris-HCl-buffer (TNC): pH 7.5; 0.2 M NaCl; 1.0 mM CaCl2) was used as neutral assay buffer.
(§2) MMP-13 was preincubated 1 hour at 37° C. with p-aminophenylmercuric acetate (APMA, A9563, Sigma-Aldrich) to optimally activate (pro)MMP-13. As substrate, Aggrecan was added and then ADAMTS-5 or activated MMP-13 as catalytic/proteolytic enzyme and TNC, as neutral control, and 10% HICA, CHX or Ilo as protease/MMP-inhibitors let incubated together from 1 hour (h) to 2 days (d). The enzyme reactions terminated by boiling with modified Laemmli buffer. The samples were analysed by 8% SDS-PAGE and after electrophoresis the defragmentation of Aggrecan was visualised using Silver Stain Pierce®.
(§3) Sample with concentrations in lines: • 1. 0.25 μl molecular weight standards. Bio-Rad • 2. 4.2 μl Aggrecan (0.5 μg/μl) • 3. 4 μl ADAMTS-5 (0.1 μg/μl) • 4. 4.2 μl Aggrecan+4 μl ADAMTS-5+6 μl TNC-buffer. inc: 2d • 5. 4.2 μl Aggrecan+4 μl ADAMTS-5+6 μl 10% HICA. inc: 2d • 6. 4.2 μl Aggrecan+4 μl ADAMTS-5+6 μl CHX (2 mg/ml). inc: 2d • 7. 1 μl MMP-13 (0.2 μg/μl)+3 μl 2 mM APMA+6 μl TNC • 8. 4.2 μl Aggrecan+1 μl MMP-13 (0.2 μg/μl)+3 μl 2 mM APMA+6 μl TNC. inc: 1h • 9. 4.2 μl Aggrecan+1 μl MMP-13 (0.2 μg/μl)+3 μl 2 mM APMA+6 μl TNC. inc: 2d • 10. […]

For experiment [3], the target named is T3, recombinant human ADAMTS-5 (Homo sapiens, UniProt Q9UNA0).
T3 construct: purchased Chemicon International Inc. CC1034
T3 sequence (Q9UNA0 262-930): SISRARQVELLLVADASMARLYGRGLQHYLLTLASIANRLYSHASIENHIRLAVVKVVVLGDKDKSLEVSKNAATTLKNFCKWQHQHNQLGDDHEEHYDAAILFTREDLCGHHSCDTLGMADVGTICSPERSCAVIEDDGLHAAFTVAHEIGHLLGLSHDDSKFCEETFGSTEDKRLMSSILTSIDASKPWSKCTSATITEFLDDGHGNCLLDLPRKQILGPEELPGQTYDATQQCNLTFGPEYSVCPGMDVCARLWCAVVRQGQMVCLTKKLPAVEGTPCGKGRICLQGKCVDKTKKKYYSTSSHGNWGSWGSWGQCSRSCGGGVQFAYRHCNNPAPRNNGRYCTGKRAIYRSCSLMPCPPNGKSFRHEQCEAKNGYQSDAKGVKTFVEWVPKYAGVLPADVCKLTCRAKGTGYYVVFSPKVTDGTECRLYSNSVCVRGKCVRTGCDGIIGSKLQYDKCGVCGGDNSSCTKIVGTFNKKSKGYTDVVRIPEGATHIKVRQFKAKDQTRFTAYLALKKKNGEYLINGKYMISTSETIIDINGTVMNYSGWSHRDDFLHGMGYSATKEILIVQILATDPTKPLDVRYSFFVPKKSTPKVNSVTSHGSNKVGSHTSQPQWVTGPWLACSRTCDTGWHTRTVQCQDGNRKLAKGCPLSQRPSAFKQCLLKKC
The experiment can be described thus: ADAMTS-5 mediated break down of aggrecan (SDS-PAGE, silver stain). As to conditions: 10% racemic HICA, pH 7.4, incubation 2 d, FIG. 1 line 5. The procedure:
as §1, §2, §3

T1 sequence (P22894 101-467): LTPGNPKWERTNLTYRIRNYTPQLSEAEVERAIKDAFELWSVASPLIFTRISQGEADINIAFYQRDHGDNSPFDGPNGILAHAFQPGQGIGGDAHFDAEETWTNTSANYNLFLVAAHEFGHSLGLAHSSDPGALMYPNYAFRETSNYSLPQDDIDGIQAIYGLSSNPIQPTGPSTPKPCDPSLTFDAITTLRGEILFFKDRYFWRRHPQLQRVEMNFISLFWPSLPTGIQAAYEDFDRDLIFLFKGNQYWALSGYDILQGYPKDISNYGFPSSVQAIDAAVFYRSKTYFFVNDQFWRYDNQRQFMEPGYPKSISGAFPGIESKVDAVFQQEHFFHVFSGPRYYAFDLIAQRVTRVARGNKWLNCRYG

Turning to `CC(C)C[C@@H](O)C(=O)O` [D-HICA], in experiment [1], the “inhibition of MMP-8 mediated DEL-1 fragmentation” value was “able to prevent fragmentation of DEL-1”. In addition, the “dose dependence of inhibition of MMP-8 mediated DEL-1 fragmentation” value in experiment [1] (Study B, 2, 4 and 8 μl of 10% D-HICA, FIG. 3B) is listed as “inhibit MMP-8 dose-dependently”.

Take `[H]/N=C(\N/C(=N/[H])NCCCCCCNC(=N)NC(=N)Nc1ccc(Cl)cc1)Nc1ccc(Cl)cc1` [chlorhexidine, reference compound]: in experiment [2], the “inhibition of break down of Aggrecan by MMP-13” value is reported as “prevent enzyme activity”. Further, the “inhibition of break down of Aggrecan by ADAMTS-5” value in experiment [3] is recorded as “prevent enzyme activity”. As to `CC(C)C[C@H](O)C(=O)O` [L-HICA], in experiment [1], the “inhibition of MMP-8 mediated DEL-1 fragmentation” value is “able to prevent fragmentation of DEL-1”.
